Assay results as given in article PMC4471902, “Block of NMDA receptor channels by endogenous neurosteroids: implications for the agonist induced conformational states of the channel vestibule” (Scientific Reports, 2015).
Several values for one entry are separate records, joined by “and”; a condition that tells them apart may be missing. Equal entries are not always repeated. Structures can show the parent of a compound that is named as a salt.

Assays:
GluN1/GluN2B receptors = molecular target: T1, GluN1/GluN2B receptors (Rattus norvegicus, UniProt P35439+Q00960); assay: Whole-cell patch-clamp of GluN1/GluN2B receptor responses in transfected HEK293 cells; format: cell-based
T1 construct: expressed in transfected cells; host or cells: HEK293
T1 sequence (Q00960 27-1482, other chains not shown): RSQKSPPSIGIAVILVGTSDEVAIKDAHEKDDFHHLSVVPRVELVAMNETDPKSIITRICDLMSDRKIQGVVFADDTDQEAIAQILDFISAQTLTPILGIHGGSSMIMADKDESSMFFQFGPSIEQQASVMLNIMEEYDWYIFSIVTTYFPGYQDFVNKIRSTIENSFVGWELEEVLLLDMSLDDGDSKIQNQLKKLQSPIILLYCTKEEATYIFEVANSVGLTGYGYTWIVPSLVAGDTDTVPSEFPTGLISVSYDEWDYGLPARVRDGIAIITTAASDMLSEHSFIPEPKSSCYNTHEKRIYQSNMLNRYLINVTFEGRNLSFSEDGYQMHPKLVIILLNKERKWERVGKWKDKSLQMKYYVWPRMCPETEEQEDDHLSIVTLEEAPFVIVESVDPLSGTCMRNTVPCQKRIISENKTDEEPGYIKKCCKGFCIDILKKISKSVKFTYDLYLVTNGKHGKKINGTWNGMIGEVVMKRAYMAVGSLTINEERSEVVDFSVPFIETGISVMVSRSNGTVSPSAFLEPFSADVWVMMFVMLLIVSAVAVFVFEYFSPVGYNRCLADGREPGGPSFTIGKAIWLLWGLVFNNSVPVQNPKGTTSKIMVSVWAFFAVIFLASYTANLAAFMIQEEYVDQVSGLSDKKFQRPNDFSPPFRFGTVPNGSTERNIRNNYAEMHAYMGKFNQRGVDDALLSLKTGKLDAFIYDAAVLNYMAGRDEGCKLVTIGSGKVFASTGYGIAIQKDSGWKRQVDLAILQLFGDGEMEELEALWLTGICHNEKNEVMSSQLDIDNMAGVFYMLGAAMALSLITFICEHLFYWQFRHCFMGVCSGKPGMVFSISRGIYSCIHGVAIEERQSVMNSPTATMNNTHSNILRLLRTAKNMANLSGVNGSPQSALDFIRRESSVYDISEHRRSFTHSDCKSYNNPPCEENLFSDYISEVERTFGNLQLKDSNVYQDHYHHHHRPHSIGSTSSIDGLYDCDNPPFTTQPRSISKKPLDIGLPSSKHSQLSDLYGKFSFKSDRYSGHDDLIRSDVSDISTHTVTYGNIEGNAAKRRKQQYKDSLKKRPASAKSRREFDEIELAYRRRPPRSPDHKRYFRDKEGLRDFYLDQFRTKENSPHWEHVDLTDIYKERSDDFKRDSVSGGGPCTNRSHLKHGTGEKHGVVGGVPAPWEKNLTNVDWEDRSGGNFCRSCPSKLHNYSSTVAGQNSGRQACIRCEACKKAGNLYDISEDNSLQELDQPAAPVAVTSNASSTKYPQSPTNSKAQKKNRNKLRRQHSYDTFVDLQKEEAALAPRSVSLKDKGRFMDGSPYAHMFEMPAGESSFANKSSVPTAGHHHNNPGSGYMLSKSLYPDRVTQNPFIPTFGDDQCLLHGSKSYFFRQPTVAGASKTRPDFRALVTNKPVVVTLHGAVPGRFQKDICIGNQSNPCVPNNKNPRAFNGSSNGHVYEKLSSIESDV
Description: (§1) Human embryonic kidney (HEK293) cells were transfected with expression vectors containing: GluN1–1a (GenBank accession number U08261)[52]; GluN2B (GenBank accession number M91562); GluN1-4a(F484A), (generous gift from Dr. J. J. Woodward)[53] (Smothers & Woodward, 2009); GluN3A (generous gift from Dr. S. A. Lipton)[54] (GenBank accession number NM_138546); GluN1ΔN with deleted 354 amino acids in the NTD (32 to 386); GluN1ΔC with an introduced stop codon in 838 of the CTD GluN2BΔN) with deleted 354 amino acids in the NTD (32 to 386); GluN2BΔC with an introduced stop codon in 844 of the CTD[55]; GluR0 (GenBank accession number Synechocystis PCC 6803) (generous gift from Dr. M. L. Mayer)[18]; and green fluorescent protein (GFP) (pQBI 25, Takara, Tokyo, Japan) genes, as described previously. The Quick-Change site-directed mutagenesis kit (Agilent Technologies, Santa Clara, CA, USA) was used to generate specific point mutations in the M1/M3 region according to the manufacturer’s instructions using manually designed primers purchased from Sigma. Modified DNA plasmids were transformed into competent XL10-Gold E.coli cells, positive clones were selected, and isolated DNA was sequenced. […] All mutations were verified by DNA sequencing (Macrogen, Seoul, Korea or SeQme, Dobris, Czech Republic). The amino acids are numbered according to the full-length protein, including the signal peptide, with the initiating methionine as 1.
(§2) Experiments were performed 24–48 hrs after transfection on cells transfected with GluN1/GluN2B/GFP plasmids. Whole-cell voltage-clamp recordings from HEK293 cells were made with a patch-clamp amplifier (Axopatch 200B; Axon Instruments, Inc., Foster City, CA) after a capacitance and series resistance (<10 MΩ) compensation of 80–90%.
(§3) Patch pipettes (3–5 MΩ) were filled with a solution containing (in mM): 120 gluconic acid, 15 CsCl, 10 BAPTA, 10 HEPES, 3 MgCl2, 1 CaCl2, and 2 ATP-Mg salt (pH-adjusted to 7.2 with CsOH). When GluR0 receptor responses were studied, intracellular solution contained (in mM): 120 gluconic acid, 15 KCl, 10 BAPTA, 10 HEPES, 3 MgCl2, 1 CaCl2, and 2 ATP-Mg salt (pH-adjusted to 7.2 with KOH). Extracellular solution (ECS) contained the following (in mM): 160 NaCl, 2.5 KCl, 10 HEPES, 10 glucose, 0.2 EDTA, and 0.7 CaCl2 (pH-adjusted to 7.3 with NaOH). Glycine (10 μM), an NMDAR co-agonist, was present in the control and test solutions. All (PA-S and PA-A) solutions were made from freshly prepared 20 mM PA-S and 5 mM PA-A stock in dimethyl sulfoxide (DMSO). The final dilution to ECS was made at 50 °C and followed by 1 min sonication (SONOREX DIGITEC DT 100/H, BADELIN electronic, Berlin, Germany). The same concentration of DMSO was added to all extracellular solutions. Drug applications were made with a microprocessor-controlled multibarrel fast-perfusion system. Changes in the glutamate-induced current in HEK293 cells transfected by GluN1/GluN2B subunits were used to estimate the rate of solution exchange around the cell. Standard ECS was switched to the ECS diluted by water (50%) during glutamate application. The osmolarity was adjusted by sucrose to match the standard ECS. Glutamate (1 mM), glycine (10 μM) and pH was maintained constant in both solutions. The solution exchange rate was estimated to be τ = 4.3 ± 0.3 ms (n = 6) for lifted cells and τ = 12.0 ± 0.9 ms (n = 6) for the attached cells.
Experiments were performed at room temperature (21–25 °C). Data were collected (low-pass filtered at 2 kHz and sampled at 10 kHz) and analyzed using pClamp 10 (Molecular Devices). Unless otherwise mentioned, error bars represent SEM; statistical comparison of groups was performed using Student’s t-test (p < 0.05 was used to determine the significance).
(§4) The IC50 was determined from a single dose of a steroid using the formula [drawing 1] where I is the relative degree of inhibition and [steroid] is the steroid concentration used. […]

[1] = tested on: GluR0 (potassium-selective prokaryotic glutamate receptor); assay: Whole-cell patch-clamp of GluR0 receptor responses in transfected HEK293 cells; format: cell-based, Synechocystis PCC 6803; conditions: 1 mM glutamate, PA-S 300 µM
Description: as §1, with “The amino acids are numbered according to the full-length protein, including the signal peptide, with the initiating methionine as 1.” left out

[2] = tested on: mutated GluN1/GluN2B receptors; assay: PA-S sensitivity of NMDARs mutated in the M1 and M3 regions of GluN1 and GluN2B (HEK293 cells); format: cell-based
Description: as §1, §2
as §3, with “The solution exchange rate was estimated to be τ = 4.3 ± 0.3 ms (n = 6) for lifted cells and τ = 12.0 ± 0.9 ms (n = 6) for the attached cells.” left out
as §4

GluN2B(Y646A) = molecular target: T2, GluN2B(Y646A) (Rattus norvegicus, UniProt P35439+Q00960, Y646A); assay: Whole-cell patch-clamp of GluN1/GluN2B(Y646A) receptor responses in HEK293 cells; format: cell-based
T2 construct: expressed in transfected cells; host or cells: HEK293
T2 sequence (Q00960 27-1482 Y646A, other chains not shown): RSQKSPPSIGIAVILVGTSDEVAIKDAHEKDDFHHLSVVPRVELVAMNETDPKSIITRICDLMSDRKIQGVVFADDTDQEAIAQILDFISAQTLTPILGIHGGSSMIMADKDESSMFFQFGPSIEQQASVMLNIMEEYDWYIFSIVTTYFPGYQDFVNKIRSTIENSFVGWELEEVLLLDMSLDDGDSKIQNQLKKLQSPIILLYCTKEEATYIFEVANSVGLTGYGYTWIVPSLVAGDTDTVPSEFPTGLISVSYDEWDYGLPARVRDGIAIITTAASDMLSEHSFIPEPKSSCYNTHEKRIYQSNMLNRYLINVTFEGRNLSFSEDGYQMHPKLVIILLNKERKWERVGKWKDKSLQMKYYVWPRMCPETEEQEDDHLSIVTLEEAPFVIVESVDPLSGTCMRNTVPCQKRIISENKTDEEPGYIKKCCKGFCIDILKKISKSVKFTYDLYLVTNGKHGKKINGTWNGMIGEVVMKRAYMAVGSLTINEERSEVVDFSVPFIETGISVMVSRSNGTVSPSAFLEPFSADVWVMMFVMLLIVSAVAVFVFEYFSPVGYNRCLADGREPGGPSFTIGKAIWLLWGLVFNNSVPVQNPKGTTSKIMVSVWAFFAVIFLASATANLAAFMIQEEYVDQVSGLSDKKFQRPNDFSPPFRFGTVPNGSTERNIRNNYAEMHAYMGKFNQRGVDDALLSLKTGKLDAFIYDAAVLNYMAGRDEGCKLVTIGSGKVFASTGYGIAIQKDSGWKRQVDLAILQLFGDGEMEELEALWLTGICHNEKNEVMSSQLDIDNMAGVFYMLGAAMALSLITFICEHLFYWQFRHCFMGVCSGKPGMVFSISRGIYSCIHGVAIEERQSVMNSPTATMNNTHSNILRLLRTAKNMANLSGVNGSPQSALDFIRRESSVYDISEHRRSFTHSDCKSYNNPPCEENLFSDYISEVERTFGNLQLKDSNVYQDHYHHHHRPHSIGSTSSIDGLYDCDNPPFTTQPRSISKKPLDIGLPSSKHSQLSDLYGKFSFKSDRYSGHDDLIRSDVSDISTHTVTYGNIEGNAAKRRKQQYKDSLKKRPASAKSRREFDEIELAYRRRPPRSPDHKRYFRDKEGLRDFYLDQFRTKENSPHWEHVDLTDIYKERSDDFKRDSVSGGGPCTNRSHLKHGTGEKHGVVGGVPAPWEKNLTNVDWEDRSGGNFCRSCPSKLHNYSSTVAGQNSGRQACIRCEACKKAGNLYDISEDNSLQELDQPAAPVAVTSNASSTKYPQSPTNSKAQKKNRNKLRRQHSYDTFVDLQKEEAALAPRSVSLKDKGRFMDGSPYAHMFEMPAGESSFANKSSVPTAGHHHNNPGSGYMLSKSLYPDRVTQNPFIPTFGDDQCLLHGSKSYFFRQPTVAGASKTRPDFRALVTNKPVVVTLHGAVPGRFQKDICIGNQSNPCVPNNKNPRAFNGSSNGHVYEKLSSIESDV
Description: Human embryonic kidney (HEK293) cells were transfected with expression vectors containing: GluN1–1a (GenBank accession number U08261)[52]; GluN2B (GenBank accession number M91562); GluN1-4a(F484A), (generous gift from Dr. J. J. Woodward)[53] (Smothers & Woodward, 2009); GluN3A (generous gift from Dr. S. A. Lipton)[54] (GenBank accession number NM_138546); GluN1ΔN with deleted 354 amino acids in the NTD (32 to 386); GluN1ΔC with an introduced stop codon in 838 of the CTD GluN2BΔN) with deleted 354 amino acids in the NTD (32 to 386); GluN2BΔC with an introduced stop codon in 844 of the CTD[55]; GluR0 (GenBank accession number Synechocystis PCC 6803) (generous gift from Dr. M. L. Mayer)[18]; and green fluorescent protein (GFP) (pQBI 25, Takara, Tokyo, Japan) genes, as described previously. The Quick-Change site-directed mutagenesis kit (Agilent Technologies, Santa Clara, CA, USA) was used to generate specific point mutations in the M1/M3 region according to the manufacturer’s instructions using manually designed primers purchased from Sigma. Modified DNA plasmids were transformed into competent XL10-Gold E.coli cells, positive clones were selected, and isolated DNA was sequenced. […]
as §4

[3] = 150 μM PA-S co-applied with 1 mM glutamate, 10 μM glycine, attached HEK293 cells
[4] = lifted HEK293 cells, 150 μM PA-S co-application with glutamate
[5] = lifted HEK293 cells, 150 μM PA-S wash

CC(=O)[C@H]1CC[C@H]2[C@@H]3CC[C@@H]4C[C@H](OS(=O)(=O)O)CC[C@]4(C)[C@H]3CC[C@]12C [PA-S, 20-oxo-5β-pregnan-3α-yl sulfate]
onset of response to glycine Af (GluN1/GluN2B receptors): 84 ± 5%
onset of response to glycine τf (GluN1/GluN2B receptors): 29 ± 3 ms
onset of response to glycine τs (GluN1/GluN2B receptors): 280 ± 72 ms
onset of inhibition Af (GluN1/GluN2B receptors; [3]): 75 ± 3%
onset of inhibition τf (GluN1/GluN2B receptors; [3]): 30 ± 2 ms
onset of inhibition τs (GluN1/GluN2B receptors; [3]): 579 ± 92 ms
recovery from inhibition (offset) τs (GluN1/GluN2B receptors; 150 μM PA-S, 1 mM glutamate, 10 μM glycine, attached HEK293 cells): 536 ± 79 ms
intercept of linear fit of mean inhibition versus holding potential (GluN1/GluN2B receptors; PA-S 200 µM, 1 mM glutamate, WT): 85.2
voltage dependence of steroid inhibition (GluN1/GluN2B receptors; WT GluN1/GluN2B): voltage independent
mode of inhibition (GluN1/GluN2B receptors; dependence on receptor activation by agonists): use-dependent
time constant of the slow rate of recovery from inhibition (GluN1/GluN2B receptors; glutamate and steroid co-application for 30 s): 902 ± 201 ms
onset of the response to glutamate application (10–90%) (GluN1/GluN2B receptors; immediately after 30 s PA-S (150 μM) pre-application in the absence of glutamate): 18.4 ± 1.6 ms
onset of inhibition As (GluN1/GluN2B receptors; [4]): 20 ± 4%
onset of inhibition τf (GluN1/GluN2B receptors; [4]): 10.8 ± 2.2 ms
onset of inhibition τs (GluN1/GluN2B receptors; [4]): 480 ± 108 ms
off rate As (GluN1/GluN2B receptors; [5]): 65% and 41 ± 6%
off rate τf (GluN1/GluN2B receptors; [5]): 16 ms and 14.3 ± 1.7 ms
off rate τs (GluN1/GluN2B receptors; [5]): 367 ms and 311 ± 70 ms
effect on glutamate-induced responses [1]: inhibited
difference of PA-S IC50 between GluN1(T648A)/GluN2B and GluN1/GluN2B(T647A) receptors [2]: 5.4 fold
change of PA-S IC50 relative to the WT receptor value ([2]; GluN1: F654A, GluN2B: P547A/S548A, F550A, L551A/E552A, F637A/F638A, Y646A, M654A, E657A/E658A): less than half
change of PA-S IC50 relative to the WT receptor value ([2]; GluN1: Y647A, T648A, A649T, N650A/L651A, V656A, GluN2B: S645A, T647A, A652T): over two-fold
IC50 ([2]; residues whose mutation decreased the IC50 by half (GluN1: F654A; GluN2B: P547A/S548A, F550A, L551A/E552A, F637A/F638A, Y646A, M654A, E657A/E658A)): < 21 µM
IC50 ([2]; residues whose mutation increased the IC50 more than two-fold (GluN1: Y647A, T648A, A649T, N650A/L651A, V656A; GluN2B: S645A, T647A, A652T)): > 84 µM
IC50 (GluN2B(Y646A)): 4.3 ± 0.7 µM
